Source: patent publication US11608309B2 (THE RESEARCH FOUNDATION FOR THE STATE UNIVERSITY OF NEW YORK, priority 2009, dated 2023)
pIC50: −log10 of the molar value. “And” between values parts separate entries of the source, which are not always exact repeats. Equal entries are not always repeated.

Columns and labels:
purified human PMN MMP-8 = purified human PMN MMP-8 (Homo sapiens (Human), UniProt P22894); assay: MMP-8 inhibition in vitro, synthetic octapeptide substrate, tripeptide products by HPLC; type: biochemical
Chain of purified human PMN MMP-8 (P22894 101-467): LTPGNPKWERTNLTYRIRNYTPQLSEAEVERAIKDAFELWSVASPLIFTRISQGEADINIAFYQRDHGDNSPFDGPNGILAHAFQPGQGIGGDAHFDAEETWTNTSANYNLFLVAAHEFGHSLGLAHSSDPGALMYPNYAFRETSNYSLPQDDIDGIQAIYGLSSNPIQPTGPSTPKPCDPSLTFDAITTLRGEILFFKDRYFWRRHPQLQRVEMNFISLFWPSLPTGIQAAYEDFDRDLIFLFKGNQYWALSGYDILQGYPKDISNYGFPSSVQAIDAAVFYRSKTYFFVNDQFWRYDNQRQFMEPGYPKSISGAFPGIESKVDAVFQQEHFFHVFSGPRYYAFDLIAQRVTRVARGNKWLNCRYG

[1] = tested on: LPS-challenged human monocytes; assay: Cytokine and growth factor levels in LPS-challenged human monocytes (Luminex multiplex); type: cell-based; conditions: 2 μM
Method: The cytokine levels were measured by Luminex multiplex, a method that allows the simultaneous measurement of different biological markers.

MMP-2 = MMP-2 (Rattus norvegicus (Rat), UniProt P33436); assay: Skin MMP-2 by ELISA in diabetic rats; type: in vivo; conditions: both low and high doses
Method: (§1) At the end of the treatment protocol, the rats were sacrificed, blood samples were collected, and whole skin (except over limbs) and gingiva were dissected (the skin, because of ample quantities of tissue were analyzed for each rat separately; the gingiva, because of the tiny amounts that could be harvested per rat, were pooled for each experimental group, as prescribed previously for tetracycline studies (30). In addition, the jaw bones were collected, defleshed, and bone loss around the teeth analyzed morphometrically as described previously (42, 43).

human monocytes = assay: Cytotoxicity in human monocytes (MTS); type: cell-based
Method: Briefly, human peripheral blood monocytes (HMs) were isolated from a leukocyte concentrate by density gradient centrifugation (Lymphoprep) and the isolated HMs cultured (2 h, 37° C.) to remove non-adherant cells. […] After incubation, the proinflammatory cytokines, TNFα, IL-1β, MCP-1 and IL-6 were measured in the conditioned media by ELISA and cytotoxicity was assessed by measuring the absorbance (490 ran) of formazan produced by reduction of MTS. The HMs alone ±0.1-0.5% DMSO produced minimal levels of these pro-inflammatory cytokines. However, addition of 100 ng/ml or 10 μg/ml of LPS both dramatically stimulated cytokine production.

[2] = target: MMP-9 (human leukocyte gelatinase) (Homo sapiens (Human), UniProt P14780); assay: MMP-9 inhibition in vitro, octapeptide/HPLC; type: biochemical
Chain of MMP-9 (human leukocyte gelatinase) (P14780 94-707): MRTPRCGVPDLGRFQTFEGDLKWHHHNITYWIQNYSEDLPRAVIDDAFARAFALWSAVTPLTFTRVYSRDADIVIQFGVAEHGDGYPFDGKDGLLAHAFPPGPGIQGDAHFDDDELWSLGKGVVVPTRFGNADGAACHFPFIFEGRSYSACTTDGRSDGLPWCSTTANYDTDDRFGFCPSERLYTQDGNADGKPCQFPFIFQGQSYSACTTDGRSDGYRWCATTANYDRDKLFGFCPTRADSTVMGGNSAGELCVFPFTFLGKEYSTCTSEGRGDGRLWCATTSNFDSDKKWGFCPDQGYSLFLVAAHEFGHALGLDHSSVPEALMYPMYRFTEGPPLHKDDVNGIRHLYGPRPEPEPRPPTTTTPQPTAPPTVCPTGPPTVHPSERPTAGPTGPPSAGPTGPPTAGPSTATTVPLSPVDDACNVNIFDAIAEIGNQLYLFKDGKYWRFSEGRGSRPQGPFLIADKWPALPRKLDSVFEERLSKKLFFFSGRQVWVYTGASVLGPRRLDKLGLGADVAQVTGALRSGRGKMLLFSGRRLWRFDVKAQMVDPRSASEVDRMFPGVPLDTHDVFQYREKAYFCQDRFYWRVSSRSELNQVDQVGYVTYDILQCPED

[3] = tested on: PC-3 human prostate cancer cells; assay: MMP-9 in conditioned media of PC-3 cells (gelatin zymography, Western blot); type: cell-based; conditions: 10 μM and 20 μM, 48 hr
Method: Compound 1 was evaluated in a cell culture model of cancer. […] After the incubation, aliquots of the conditioned media were assayed for MMP-9 (gelatinase B) by either of two techniques, gelatin zymoyraphy (in the presence of 2 or 10 mMCa^++) and Western blot (both assays used purified MMP-9, 92 kDa gelatinase, as a standard).

[4] = tested on: neonatal rat ventricular myocytes; assay: Doxorubicin mediated caspase-3 activity; type: cell-based; conditions: doxorubicin 500 nM, 6 h and 24 h, compounds 10 μM
Method: Neonatal rat ventricular myocytes, serum starved for 24 h, were treated with the inhibitors 1 h prior to the addition of 500 nM of doxorubicin (Sigma). At the indicated time points cells were washed with ice-cold phosphate buffered saline and lysed using RIPA buffer (Pierce) containing protease and phosphatase inhibitors (Sigma). Caspase-3 activity in the cell lysates was measured by incubation with 7-amino-4-trifluoromethyl coumarin (Enzo).

[5] = Alveolar bone loss in diabetic rats; type: in vivo, rat; conditions: very high oral dose (500 mg/kg), 3 weeks
Method: as §1
Alveolar bone loss (the signature pathologic event in inflammatory periodontal disease) was assessed in the defleshed jaws of the compound 1-treated (TX) and untreated rats. Briefly, little or no difference in bone loss was seen comparing the untreated non-diabetic and untreated diabetic rat jaws (enhanced bone loss has been observed in diabetic rats previously when the duration of the hyperglycemia was greater than the 3-week experiment described herein).

IL-1β = IL-1β (Rattus norvegicus (Rat), UniProt Q63264); assay: Gingiva IL-1β by ELISA in diabetic rats; type: in vivo; conditions: lower oral dose (100 mg/kg), 3 weeks
Method: as §1

[6] = Hyperglycemia in streptozotocin-diabetic rats, 1-week oral treatment; type: in vivo, rat; conditions: 100 mg/kg oral once/day for 7 days
Excerpt: The purpose of the following was to establish an in vivo model of excessive collagen degradation to be used to test efficacy of the compounds of the subject invention. Male Sprague-Dawley rats (typically 300-400 gms of body weight), specific viral antibody free, were ordered from Charles River. Following general anesthesia via isoflurane anesthetic inhalation, diabetes was induced by an I.V. administration of streptozotocin (STZ) (50* mg/kg body weight) (Sigma Chemical Co., St Louis, Mo., USA) diluted in 0.9% citrated saline (pH 4.5), after 12 hours of fasting. After the streptozotocin injection, the animals were given free access to water and food. […] In this test, the test-paper color changes to dark brown which indicates glycosuria.
The latter assays were carried out using Western blot analysis with monoclonal antibodies to MMP-8.

[7] = Diabetic adverse events in rats; type: in vivo, rat; conditions: 1-week oral treatment, n = 6
[8] = tested on: neonatal rat ventricular myocytes; assay: Hydrogen peroxide induced LDH release; type: cell-based; conditions: H2O2 100 μM, compound 10 μM
Method: Neonatal rat ventricular myocytes, serum starved for 24 h, were treated with the inhibitors 1 h prior to the addition of 100 μM of hydrogen peroxide (Sigma). LDH release in the conditioned media was quantified using CytoTox-ONE Homogeneous Membrane Integrity Assay reagent (Promega) at the indicated time points.

[9] = Solubility in aqueous solutions; type: physicochemical
TNF-α = TNF-α production by LPS-stimulated human monocytes (ELISA); type: cell-based; conditions: 10 and 20 μM
Method: Briefly, human peripheral blood monocytes (HMs) were isolated from a leukocyte concentrate by density gradient centrifugation (Lymphoprep) and the isolated HMs cultured (2 h, 37° C.) to remove non-adherant cells. The adherent HMs were cultured for 18 h (1×10^6 cells/well, 24-well plates)±endotoxin (LPS)±different compounds dissolved in DMSO (the final concentration of DMSO in the RPMI serum-free culture media with Pen./Strep, antibiotics was no greater than 0.5%). After incubation, the proinflammatory cytokines, TNFα, IL-1β, MCP-1 and IL-6 were measured in the conditioned media by ELISA and cytotoxicity was assessed by measuring the absorbance (490 ran) of formazan produced by reduction of MTS. The HMs alone ±0.1-0.5% DMSO produced minimal levels of these pro-inflammatory cytokines. However, addition of 100 ng/ml or 10 μg/ml of LPS both dramatically stimulated cytokine production.

**Q.** With `c1cnc2c(c1)ccc1cccnc12` [1,10-phenanthroline, 1,10-O-phenanthroline] as the compound, how does the pIC50 (purified human PMN MMP-8; read-out: IC50 against purified hMMP-8) read?
**A.** 5.00 and 4.46

**Q.** What does the source list for `COC(=O)C(C(=O)/C=C/c1ccc(O)c(OC)c1)C(=O)/C=C/c1ccc(O)c(OC)c1` [Compound 1, 1,7-Bis(4-hydroxy-3-methoxyphenyl)-4-methoxycarbonylhepta-1E,6E-dien-3,5-dione]?
**A.** Reduction of MCP-1, TNFα and VEGF levels [1]: potent in reducing; Reduction of elevated MMP-2 level in skin (MMP-2): 28%; Cytotoxicity Monocytes @ 5 h incubation (human monocytes; 2 uM): 2 uM- 0%; Cytotoxicity Monocytes @ 5 h incubation (human monocytes; 10 uM): 10 uM- 0%; pIC50 [2]: 4.77 to 5.22; Production and/or activity of MMP-9 [3]: inhibited the production and/or activity of MMP-9; Modulation of doxorubicin mediated caspase-3 activity [4]: None of the MMP inhibitors, including compound 1, negatively modulate caspase-3 activity; Reduction in alveolar bone loss vs untreated groups [5]: less effective; Reduction of IL-1β in gingiva vs untreated diabetic (IL-1β): about 18%; Effect on severity of hyperglycemia (serum glucose) [6]: no effect; Description of AEs [7]: Minor inflamed sclera; Incidence of Adverse Events (AEs) [7]: 1/6; Effect on LDH release ([8]; 24 h): less dramatic effect; Solubility [9]: more soluble than the insoluble natural product curcumin

**Q.** With `COC(=O)C(C(=O)/C=C/c1ccc(O)cc1)C(=O)/C=C/c1ccc(O)cc1` [Compound 3, 1,7-Bis(4-hydroxyphenyl)-4-methoxycarbonylhepta-1E,6E-dien-3,5-dione] as the compound, how does the pIC50 [2] read?
**A.** 4.77 to 5.22

**Q.** What about the “IC50 collagenase (MMP-8) activity” value (purified human PMN MMP-8; Example 7 experiment, 37° C., 1 mM Ca++) of the same compound?
**A.** more potent as a collagenase or MMP inhibitor than compound 1

**Q.** What about the Solubility [9] of the same compound?
**A.** more soluble in aqueous solutions than compound 1

**Q.** With `COc1cc(/C=C/C(=O)CC(=O)/C=C/c2ccc(N(C)C)cc2)ccc1O` [Compound 4] as the compound, how does the pIC50 [2] read?
**A.** 4.77 to 5.22

**Q.** For `COc1cc(/C=C/C(=O)CC(=O)/C=C/c2ccc(O)c(OC)c2)ccc1O` [Curcumin, diferuloylmethane], which “Cytotoxicity Monocytes @ 5 h incubation” value (human monocytes; 10 uM) is on record?
**A.** 10 uM- 0%

**Q.** And the “Cytotoxicity Monocytes @ 18 h incubation” value (human monocytes; 10 uM, 18 h)?
**A.** 10 uM- 0%

**Q.** And the “Cytotoxicity associated with TNFα inhibitory effect” value (human monocytes; 50 and 100 μM, some precipitation in cell culture)?
**A.** significant cytotoxicity

**Q.** And the “Effect on TNFα production by endotoxin-stimulated human monocytes” value (TNF-α)?
**A.** no effect

**Q.** And the Solubility [9]?
**A.** insoluble

**Q.** Which “Effect on LDH release” value [8] does the source give for `CNC(=O)[C@H](Cc1c[nH]c2ccccc12)NC(=O)[C@@H](CC(=O)NO)CC(C)C` [GM-6001] here?
**A.** did not affect LDH release

**Q.** For `CCOCOC[C@H](C[C@H](C)C(=O)NO)NC(=O)c1ccc(Oc2ccccc2)cc1` [ONO-4817], which “Effect on LDH release” value [8] is on record?
**A.** did not affect LDH release
